Experimental data from ChEMBL document CHEMBL5465560, “Selectivity Literature for EUbOPEN Chemogenomic Library” (2024).
Blank lines part the entries; values can stand above or below the compound they belong to.

Assays:
[1] = target: T1, Serine/threonine-protein kinase 17B (Homo sapiens) (UniProt O94768); assay: Selectivity interaction (LanthaScreen Eu Kinase Binding Assay) EUB0001632a STK17B; conditions: at 10 µM
T1 sequence (whole entry): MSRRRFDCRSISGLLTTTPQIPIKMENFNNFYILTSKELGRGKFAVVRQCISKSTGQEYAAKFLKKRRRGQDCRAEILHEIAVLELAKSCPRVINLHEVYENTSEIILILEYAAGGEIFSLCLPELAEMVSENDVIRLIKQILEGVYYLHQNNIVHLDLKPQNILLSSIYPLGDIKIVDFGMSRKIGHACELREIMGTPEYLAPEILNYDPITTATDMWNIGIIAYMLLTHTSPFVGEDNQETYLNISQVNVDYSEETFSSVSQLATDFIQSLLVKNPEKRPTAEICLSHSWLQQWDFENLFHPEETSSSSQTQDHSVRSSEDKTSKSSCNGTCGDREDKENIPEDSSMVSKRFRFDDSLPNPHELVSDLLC

Nischarin (Homo sapiens) = Nischarin (Homo sapiens) (UniProt Q9Y2I1); assay: Selectivity interaction (Eurofins CEREP Diversity Profile (receptors and ion channels)) EUB0000279b NISCH; conditions: at 10 µM
[2] = target: High affinity nerve growth factor receptor (Homo sapiens, UniProt P04629); assay: Selectivity interaction (Kinase panel (literature)) EUB0001199aCl NTRK1; conditions: at 1 µM
High affinity nerve growth factor receptor, sequence (P04629 33-796 limits assumed): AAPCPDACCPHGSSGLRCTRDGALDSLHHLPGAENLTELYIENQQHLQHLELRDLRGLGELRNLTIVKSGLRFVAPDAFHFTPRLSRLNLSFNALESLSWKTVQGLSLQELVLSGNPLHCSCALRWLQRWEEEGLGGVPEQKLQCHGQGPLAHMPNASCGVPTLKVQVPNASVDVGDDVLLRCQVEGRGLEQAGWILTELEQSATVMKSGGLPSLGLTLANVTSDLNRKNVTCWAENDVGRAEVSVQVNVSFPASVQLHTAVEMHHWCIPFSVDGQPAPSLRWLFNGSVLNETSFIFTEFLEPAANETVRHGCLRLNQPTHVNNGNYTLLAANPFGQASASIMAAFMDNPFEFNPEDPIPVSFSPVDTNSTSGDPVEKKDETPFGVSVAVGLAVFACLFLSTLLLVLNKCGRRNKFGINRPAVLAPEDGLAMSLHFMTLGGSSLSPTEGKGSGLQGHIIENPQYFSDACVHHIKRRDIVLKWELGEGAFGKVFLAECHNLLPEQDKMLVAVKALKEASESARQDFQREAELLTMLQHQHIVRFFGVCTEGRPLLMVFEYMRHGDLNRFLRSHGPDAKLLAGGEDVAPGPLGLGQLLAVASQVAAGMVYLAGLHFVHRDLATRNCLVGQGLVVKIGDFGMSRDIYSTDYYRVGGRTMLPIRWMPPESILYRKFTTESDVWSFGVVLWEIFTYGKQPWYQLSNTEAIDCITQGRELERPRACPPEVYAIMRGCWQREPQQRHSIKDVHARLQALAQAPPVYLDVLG

[3] = target: Ribosomal protein S6 kinase alpha-6 (Homo sapiens, UniProt Q9UK32); assay: Selectivity interaction (KinomeScan (DiscoverX)) EUB0000607a RPS6KA6; conditions: at 10 µM
[4] = target: T2, Cyclin-dependent kinase 11A (Homo sapiens) (UniProt Q9UQ88); conditions: at 10 µM
T2 sequence (whole entry): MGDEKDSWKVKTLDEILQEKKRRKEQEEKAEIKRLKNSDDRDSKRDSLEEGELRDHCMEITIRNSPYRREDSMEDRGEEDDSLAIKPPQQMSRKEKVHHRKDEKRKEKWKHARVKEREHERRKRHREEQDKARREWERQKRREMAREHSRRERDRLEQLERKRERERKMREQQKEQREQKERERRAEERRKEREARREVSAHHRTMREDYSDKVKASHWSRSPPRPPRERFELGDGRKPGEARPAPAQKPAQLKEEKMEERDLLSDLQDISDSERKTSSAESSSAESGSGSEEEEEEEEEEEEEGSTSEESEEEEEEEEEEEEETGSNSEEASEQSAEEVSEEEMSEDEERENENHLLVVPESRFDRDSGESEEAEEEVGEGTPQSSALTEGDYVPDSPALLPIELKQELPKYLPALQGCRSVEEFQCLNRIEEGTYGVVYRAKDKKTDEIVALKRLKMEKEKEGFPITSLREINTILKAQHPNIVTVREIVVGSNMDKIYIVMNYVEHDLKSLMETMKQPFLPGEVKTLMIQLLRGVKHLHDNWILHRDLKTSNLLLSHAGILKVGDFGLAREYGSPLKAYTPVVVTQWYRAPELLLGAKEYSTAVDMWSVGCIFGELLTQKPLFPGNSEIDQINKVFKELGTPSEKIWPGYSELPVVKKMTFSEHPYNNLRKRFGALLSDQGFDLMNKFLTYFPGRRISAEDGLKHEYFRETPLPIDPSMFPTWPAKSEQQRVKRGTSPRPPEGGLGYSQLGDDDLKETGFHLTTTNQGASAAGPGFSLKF

[5] = target: Serine/threonine-protein kinase 24 (Homo sapiens) (UniProt Q9Y6E0); assay: Selectivity interaction (ActivX KiNativ screen (kinase selectivity in THP-1 cell lysates)) EUB0000639a STK24; format: subcellular; conditions: lysate, at 1 µM
Serine/threonine-protein kinase 24 (Homo sapiens), sequence (Q9Y6E0 whole entry, looked up): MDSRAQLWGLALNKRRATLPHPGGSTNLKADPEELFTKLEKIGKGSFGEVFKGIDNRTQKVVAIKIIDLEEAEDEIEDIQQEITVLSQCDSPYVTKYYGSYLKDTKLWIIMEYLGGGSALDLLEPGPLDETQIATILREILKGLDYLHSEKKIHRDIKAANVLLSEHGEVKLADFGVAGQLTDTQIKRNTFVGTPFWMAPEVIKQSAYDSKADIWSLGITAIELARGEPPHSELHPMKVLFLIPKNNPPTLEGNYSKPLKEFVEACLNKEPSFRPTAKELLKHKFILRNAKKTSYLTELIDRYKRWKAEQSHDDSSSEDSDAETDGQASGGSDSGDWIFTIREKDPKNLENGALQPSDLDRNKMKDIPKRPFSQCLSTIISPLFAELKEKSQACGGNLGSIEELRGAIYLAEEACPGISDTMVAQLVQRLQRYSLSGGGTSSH

[6] = target: eIF-2-alpha kinase GCN2 (Homo sapiens) (UniProt Q9P2K8); assay: Selectivity interaction (ActivX KiNativ screen (kinase selectivity in THP-1 cell lysates)) EUB0000639a EIF2AK4; format: subcellular; conditions: lysate, at 0.01 µM
eIF-2-alpha kinase GCN2 (Homo sapiens), sequence (Q9P2K8 whole entry): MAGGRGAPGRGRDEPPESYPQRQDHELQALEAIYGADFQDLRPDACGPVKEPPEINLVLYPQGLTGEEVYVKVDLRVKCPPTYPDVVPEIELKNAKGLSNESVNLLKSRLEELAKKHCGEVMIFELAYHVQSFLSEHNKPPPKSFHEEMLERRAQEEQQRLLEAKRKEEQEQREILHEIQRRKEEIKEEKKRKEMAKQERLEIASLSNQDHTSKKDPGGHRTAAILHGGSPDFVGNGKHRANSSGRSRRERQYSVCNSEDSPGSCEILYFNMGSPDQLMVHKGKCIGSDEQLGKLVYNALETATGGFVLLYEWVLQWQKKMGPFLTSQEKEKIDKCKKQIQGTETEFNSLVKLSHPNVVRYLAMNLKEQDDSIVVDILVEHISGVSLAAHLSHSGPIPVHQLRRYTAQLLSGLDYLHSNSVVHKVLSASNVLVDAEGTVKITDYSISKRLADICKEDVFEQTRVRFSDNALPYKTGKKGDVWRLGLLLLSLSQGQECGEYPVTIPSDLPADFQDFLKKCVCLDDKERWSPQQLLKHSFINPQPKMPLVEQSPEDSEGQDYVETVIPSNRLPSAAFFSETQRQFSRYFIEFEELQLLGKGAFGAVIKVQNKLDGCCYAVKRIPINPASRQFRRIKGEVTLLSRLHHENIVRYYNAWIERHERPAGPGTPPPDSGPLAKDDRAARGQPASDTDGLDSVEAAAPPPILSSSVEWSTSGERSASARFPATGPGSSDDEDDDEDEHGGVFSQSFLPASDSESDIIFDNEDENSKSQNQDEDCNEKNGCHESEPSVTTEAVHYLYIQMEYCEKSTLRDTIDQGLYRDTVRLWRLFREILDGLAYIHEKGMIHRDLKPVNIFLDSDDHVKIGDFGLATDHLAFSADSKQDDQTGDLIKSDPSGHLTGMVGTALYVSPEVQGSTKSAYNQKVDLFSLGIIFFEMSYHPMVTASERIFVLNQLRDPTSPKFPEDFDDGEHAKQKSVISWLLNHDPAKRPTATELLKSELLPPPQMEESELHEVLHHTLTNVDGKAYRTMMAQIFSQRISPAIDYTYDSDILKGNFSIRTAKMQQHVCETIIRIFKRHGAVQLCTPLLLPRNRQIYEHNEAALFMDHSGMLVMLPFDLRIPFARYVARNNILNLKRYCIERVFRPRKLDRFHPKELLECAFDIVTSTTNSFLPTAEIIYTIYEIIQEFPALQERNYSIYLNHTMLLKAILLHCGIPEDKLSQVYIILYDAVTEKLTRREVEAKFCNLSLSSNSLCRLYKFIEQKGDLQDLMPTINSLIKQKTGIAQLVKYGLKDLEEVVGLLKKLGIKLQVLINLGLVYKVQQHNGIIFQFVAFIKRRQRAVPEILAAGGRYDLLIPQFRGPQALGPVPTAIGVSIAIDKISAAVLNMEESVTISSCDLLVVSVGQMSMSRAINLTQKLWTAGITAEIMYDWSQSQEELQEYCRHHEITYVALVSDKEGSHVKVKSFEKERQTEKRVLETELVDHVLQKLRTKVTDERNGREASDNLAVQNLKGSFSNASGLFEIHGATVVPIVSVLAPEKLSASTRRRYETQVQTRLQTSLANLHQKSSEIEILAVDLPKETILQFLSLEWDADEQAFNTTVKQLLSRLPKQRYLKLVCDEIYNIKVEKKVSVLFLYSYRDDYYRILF

[7] = target: Serine/threonine-protein kinase 33 (Homo sapiens) (UniProt Q9BYT3); assay: Selectivity interaction (ProQinase) EUB0000171b STK33
Serine/threonine-protein kinase 33 (Homo sapiens), sequence (Q9BYT3 whole entry, looked up): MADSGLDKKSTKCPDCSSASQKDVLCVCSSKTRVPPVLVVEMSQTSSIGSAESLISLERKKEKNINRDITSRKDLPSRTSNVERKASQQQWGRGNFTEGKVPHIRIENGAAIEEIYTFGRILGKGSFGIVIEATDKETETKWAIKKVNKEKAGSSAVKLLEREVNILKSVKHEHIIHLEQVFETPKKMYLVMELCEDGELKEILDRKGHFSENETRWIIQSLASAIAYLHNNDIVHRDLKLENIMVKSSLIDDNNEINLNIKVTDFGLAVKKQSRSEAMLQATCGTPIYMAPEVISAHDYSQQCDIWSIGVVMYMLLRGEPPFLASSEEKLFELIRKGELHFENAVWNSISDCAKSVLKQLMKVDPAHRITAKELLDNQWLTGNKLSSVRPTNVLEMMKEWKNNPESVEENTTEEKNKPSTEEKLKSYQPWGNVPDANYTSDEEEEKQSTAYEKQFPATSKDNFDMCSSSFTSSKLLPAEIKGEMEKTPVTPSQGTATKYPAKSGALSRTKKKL

[8] = target: T3, Serine/threonine-protein kinase D3 (Homo sapiens) (UniProt O94806); assay: Selectivity interaction (ProQinase) EUB0000171b PRKD3
T3 sequence (whole entry): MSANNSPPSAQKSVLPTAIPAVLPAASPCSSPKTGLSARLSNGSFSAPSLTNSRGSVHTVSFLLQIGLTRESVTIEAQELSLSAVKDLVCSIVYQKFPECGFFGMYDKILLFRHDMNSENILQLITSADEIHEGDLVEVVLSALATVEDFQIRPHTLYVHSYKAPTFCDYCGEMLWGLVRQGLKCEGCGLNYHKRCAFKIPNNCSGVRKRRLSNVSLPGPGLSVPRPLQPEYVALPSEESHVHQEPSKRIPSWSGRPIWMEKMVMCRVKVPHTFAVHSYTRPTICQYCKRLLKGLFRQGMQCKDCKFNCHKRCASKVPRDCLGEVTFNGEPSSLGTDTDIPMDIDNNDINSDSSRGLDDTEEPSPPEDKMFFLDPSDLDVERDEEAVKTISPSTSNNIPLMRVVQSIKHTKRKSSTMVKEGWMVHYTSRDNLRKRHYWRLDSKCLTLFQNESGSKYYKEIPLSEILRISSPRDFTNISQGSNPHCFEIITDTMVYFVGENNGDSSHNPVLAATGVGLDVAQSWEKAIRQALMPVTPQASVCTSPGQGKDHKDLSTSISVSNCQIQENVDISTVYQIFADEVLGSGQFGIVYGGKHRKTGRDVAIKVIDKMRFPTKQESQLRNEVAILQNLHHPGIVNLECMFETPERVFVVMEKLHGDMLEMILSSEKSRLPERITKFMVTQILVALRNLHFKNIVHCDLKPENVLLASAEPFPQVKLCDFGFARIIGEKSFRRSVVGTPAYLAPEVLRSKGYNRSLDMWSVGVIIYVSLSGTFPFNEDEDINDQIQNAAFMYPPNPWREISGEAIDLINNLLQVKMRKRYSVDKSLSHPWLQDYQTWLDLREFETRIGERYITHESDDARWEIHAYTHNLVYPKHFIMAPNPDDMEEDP

[9] = target: Cyclin-dependent kinase 1 (Homo sapiens) (UniProt P06493); assay: Selectivity interaction (Kinase panel (KiNativ target engagement assay in Jurkat cells)) EUB0001635a CDK1; format: cell-based; conditions: Selectivity number of off-targets 0.0, Selectivity number of targets 233.0, Source Knowledge https://www.sciencedirect.com/science/article/pii/S2451945619300674?via%3Dihub, at 1 µM
Cyclin-dependent kinase 1 (Homo sapiens), sequence (P06493 whole entry, looked up): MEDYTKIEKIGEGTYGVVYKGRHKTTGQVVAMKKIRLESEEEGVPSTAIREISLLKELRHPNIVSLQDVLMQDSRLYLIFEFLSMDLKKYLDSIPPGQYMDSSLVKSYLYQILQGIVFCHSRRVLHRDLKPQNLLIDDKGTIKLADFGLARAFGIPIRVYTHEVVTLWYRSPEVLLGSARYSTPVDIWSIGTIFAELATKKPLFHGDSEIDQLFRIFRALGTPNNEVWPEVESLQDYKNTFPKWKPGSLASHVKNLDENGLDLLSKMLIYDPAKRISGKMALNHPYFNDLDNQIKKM

[10] = target: Tyrosine-protein kinase JAK1 (Homo sapiens, UniProt P23458); assay: Selectivity interaction (Kinase panel (Carna Biosciences)) EUB0001542aTs JAK1; conditions: at 1 µM
[11] = target: Ribosomal protein S6 kinase alpha-3 (Homo sapiens, UniProt P51812); assay: Selectivity interaction (KinomeScan (DiscoverX)) EUB0001619a RPS6KA3; conditions: at 1 µM
Ribosomal protein S6 kinase alpha-3, sequence (P51812 whole entry): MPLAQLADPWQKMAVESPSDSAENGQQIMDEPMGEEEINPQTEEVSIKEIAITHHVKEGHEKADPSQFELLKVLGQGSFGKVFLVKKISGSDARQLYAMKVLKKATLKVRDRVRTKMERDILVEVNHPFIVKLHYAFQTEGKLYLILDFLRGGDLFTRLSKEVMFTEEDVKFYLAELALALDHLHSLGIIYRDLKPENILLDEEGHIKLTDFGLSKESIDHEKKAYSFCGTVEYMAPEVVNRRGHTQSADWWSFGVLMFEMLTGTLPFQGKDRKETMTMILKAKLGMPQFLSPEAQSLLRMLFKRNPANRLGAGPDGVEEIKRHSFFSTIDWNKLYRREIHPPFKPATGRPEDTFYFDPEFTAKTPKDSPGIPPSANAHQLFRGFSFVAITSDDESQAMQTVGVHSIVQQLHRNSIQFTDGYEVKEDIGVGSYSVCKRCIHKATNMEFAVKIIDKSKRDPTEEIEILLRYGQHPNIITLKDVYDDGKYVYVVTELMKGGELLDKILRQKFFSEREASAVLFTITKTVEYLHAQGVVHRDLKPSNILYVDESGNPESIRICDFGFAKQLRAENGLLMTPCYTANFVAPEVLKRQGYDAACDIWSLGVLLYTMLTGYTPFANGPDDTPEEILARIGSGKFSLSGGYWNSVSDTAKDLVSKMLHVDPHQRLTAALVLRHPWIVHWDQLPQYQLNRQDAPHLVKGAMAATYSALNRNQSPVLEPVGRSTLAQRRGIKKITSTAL

SMILES: Cn1cc(-n2cnc3c(NCc4nc5cc(Cl)c(Cl)cc5[nH]4)nc(N4CCOCC4)nc32)cn1
% of inhibition [1]: -19.1%

SMILES: CNC(=O)Nc1ccc(-c2nc(N3CC4CCC(C3)O4)c3cnn(C4CCC5(CC4)OCCO5)c3n2)cc1
% of control [3]: 84%

SMILES: C=CC(=O)Nc1cccc(C(=O)Nc2ccc(Nc3cc(-c4[nH]c(SC)nc4C)ccn3)cc2)c1
% of control ([7]; at 1 µM): 76%
% of control ([7]; at 5 µM): 71%
% of control ([8]; at 1 µM): 44%
% of control ([8]; at 5 µM): 15%

SMILES: C=CC(=O)Nc1ccc(C(=O)Nc2[nH]nc3c2CN(C(=O)N[C@H](CN(C)C)c2ccccc2)C3(C)C)cc1
% of engagement [9]: -3.1%

SMILES: Cn1cc(Nc2nccc(N3CC4CCC(C3)N4C(=O)[C@@H]3CC3(F)F)n2)cn1
% of inhibition [10]: 96%

SMILES: N#Cc1cccc(-c2c[nH]c3ncnc(N4CCOCC4)c23)c1
% of control [11]: 38%

The remaining lines, values ahead:

% of control (Nischarin (Homo sapiens)): 87%
SMILES: CC(=O)c1cc(-c2ccccc2OCC2CC2)c2ncccn12

% of inhibition [2]: 12%
SMILES: CN1Cc2nccc(-c3cn(C)nc3-c3ccc(F)cc3)c2C1=O

% of control [4]: 100%
SMILES: CCN(CC)CCCCNc1ncc2cc(-c3cc(OC)cc(OC)c3)c(NC(=O)NC(C)(C)C)nc2n1

% of inhibition [5]: 5.9%
% of inhibition [6]: 2%
SMILES: CC[C@@H]1[C@H](F)C(=O)N[C@@H]1COc1nccc2cc(C(N)=O)c(OC)cc12 [ZIMLOVISERTIB]
